As a reminder, the IC50 is the point on the concentration scale where inhibition reaches its midpoint. Usually half-life stands for the time needed for the level to fall by half in the phase considered. A high value points to slow decline. In general, EC50 refers to the concentration giving half of the maximal effect. The amount remaining is the share of the starting amount still present when the sample was taken. Read a high amount remaining as less turnover.

Several values for one entry are separate records, joined by “and”; a condition that tells them apart may be missing. Equal entries are not always repeated. Where two headings read alike, the source gives them in different places. Marks after values point to notes of the source that are not given here. Where a SMILES comes first, the peptide text is derived from it. [ ]: non-standard residue; d: D form. The star is where a group is joined. 1Nal = N[C@@H](Cc1cccc2ccccc12)C(=O)O; Nicotinoyl(6-F) = O=C(c1ccc(F)nc1)*; Cha = N[C@@H](CC1CCCCC1)C(=O)O; NMeS = CN[C@@H](CO)C(=O)O; hSer = N[C@@H](CCO)C(=O)O; Nle = CCCC[C@H](N)C(=O)O; Octanoyl = CCCCCCCC(=O)*; Abu = CC[C@H](N)C(=O)O; Dap = NC[C@H](N)C(=O)O; Inp = O=C(O)C1CCNCC1 Where only a bound is given, the exact number is not on record here.

These results are taken from paper PMC10353549 (ACS Pharmacology & Translational Science, 2023).

The target of data set [1] is T1, growth hormone secretagogue receptor 1a (GHSR) (Homo sapiens, UniProt Q92847). Particulars: read-out: IC50 (GHSR affinity); previous work; cited from earlier work.
Target sequence in this assay (Q92847 whole entry, species assumed): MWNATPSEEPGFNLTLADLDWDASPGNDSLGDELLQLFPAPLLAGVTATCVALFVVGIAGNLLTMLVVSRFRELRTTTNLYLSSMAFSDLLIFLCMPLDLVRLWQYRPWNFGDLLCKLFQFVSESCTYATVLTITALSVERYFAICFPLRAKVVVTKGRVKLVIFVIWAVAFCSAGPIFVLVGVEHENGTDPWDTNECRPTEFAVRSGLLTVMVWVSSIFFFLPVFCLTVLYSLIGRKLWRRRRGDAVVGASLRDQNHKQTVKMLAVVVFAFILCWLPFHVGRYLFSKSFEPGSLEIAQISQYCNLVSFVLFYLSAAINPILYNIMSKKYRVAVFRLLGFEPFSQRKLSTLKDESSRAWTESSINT
The conditions of data set [2]: human serum; cited from earlier work.
A short description of data set [3]: Human liver S9 fraction stability. The class given is in vitro ADME. Particulars: for half-life at 3 μM: human, pooled human liver S9 fraction.
A further data set has as its target GHSR (Homo sapiens, UniProt Q92847). In words: cell-based.
Data set [4] can be described thus: Chemical stability in buffer. Particulars: for chemical stability in buffer: 37 °C, over 24 h. The data set is classed as physicochemical.
Data set [5] concerns the target T1, growth hormone secretagogue receptor 1a (GHSR). In words: biochemical.
Another data set in a line: Human serum stability. The data set is classed as in vitro ADME.
Data set [6] in a line: human serum from human male AB plasma. Particulars: 37 °C, up to 24 h.
In data set [7] the target is growth hormone secretagogue receptor 1a, eYFP tagged (GHSR-eYFP) (UniProt Q92847). In words: radioligand binding.
Setting [8] is: pH 7.4, S9 t1/2, pooled human liver S9 fraction 1 mg/mL, peptide 3 μM, 37 °C, over 4 h.
[9] abbreviates: human liver S9 fraction, over 4 h.

Sequence of GHSR (Q92847 whole entry, species assumed): as above
Sequence of growth hormone secretagogue receptor 1a, eYFP tagged (GHSR-eYFP) (Q92847 whole entry): as the sequence (Q92847 whole entry, species assumed) above

In the case of `CC(C)C[C@H](NC(=O)[C@H](Cc1cccc2ccccc12)NC(=O)[C@H](CNC(=O)c1ccc(F)nc1)NC(=O)[C@H](CO)NC(=O)C1CCNCC1)C(=O)N[C@@H](CO)C(=O)N1CCC[C@H]1C(=O)N[C@H](C(N)=O)[C@@H](C)O` [compound 1, [Inp^1,Dpr^3(6-FN),1Nal^4,Thr^8]ghrelin(1–8) amide] (H-[Inp]S[Dap](Nicotinoyl(6-F))[1Nal]LSPT-NH2), the figures for the IC50 in [1] and in [5] were 0.11 nM and 0.09 nM, respectively. Besides, the “Serum t1/2” value in [2] is 4.7 ^a h. Besides, the “time after which peptide was completely degraded in human liver S9 fraction” value in data set [3] (human liver S9 fraction, 37 °C) came to 4 h. The molecule also showed a half-life at 3 μM in data set [3] (setting [8]) of 1.1 h. Besides, the “S9 t1/2” value in data set [3] (pooled human liver S9 fraction 1 mg/mL, peptide 3 μM, 37 °C, over 4 h) was determined as 1.08 h. Further, the EC50 at GHSR was 8 nM. Also, the “chemical stability in buffer” value in data set [4] is listed as “chemically stable”. The same molecule returned a fraction remaining at 24 h, 1 mM in [4] (phosphate-buffered saline, pH 7.4) of 100%.

Take `CCCCCCCC(=O)NC[C@H](NC(=O)[C@H](CO)NC(=O)CN)C(=O)N[C@@H](Cc1ccccc1)C(=O)N[C@@H](CC(C)C)C(=O)N[C@@H](CO)C(=O)N1CCC[C@H]1C(=O)N[C@@H](CCC(=O)O)C(=O)O` [compound 2, [Dpr^3(n-octanoyl)]ghrelin(1–8)] (H-GS[Dap](Octanoyl)FLSPE-OH): the “Serum t1/2” value in the data set “Human serum stability” (25% human serum in PBS pH 7.4, 37 °C, peptide 1 mM, over 24 h) is recorded as 2.0 h. Moreover, the “time after which peptide was completely degraded in human serum” value in the data set “Human serum stability” (human serum, 37 °C) is recorded as 6 h. Also, in data set [3] (pH 7.4), the half-life at 3 μM is 0.57 h. Further, the “chemical stability in buffer” value in data set [4] was “chemically stable”.

For `CC(C)C[C@@H](NC(=O)[C@H](Cc1cccc2ccccc12)NC(=O)[C@H](CNC(=O)c1ccc(F)nc1)NC(=O)[C@H](CO)NC(=O)C1CCNCC1)C(=O)N[C@@H](CO)C(=O)N1CCC[C@H]1C(=O)N[C@H](C(N)=O)[C@@H](C)O` [compound 9, Inp-S-Dpr(6-FN)-1Nal-lSPT-NH2] (H-[Inp]S[Dap](Nicotinoyl(6-F))[1Nal][dL]SPT-NH2), the “stability in human serum” value in “Human serum stability” (human serum, over 24 h) is reported as “completely stable”. Further, the “stability in human liver S9 fraction” value in data set [3] (setting [9]) is “completely stable”. Besides, the half-life at 3 μM in data set [3] (setting [8]) was above 4 h. Besides, the half-maximal inhibitory concentration (IC50) in [5] came out at 56.5 ± 6.5 nM.

With `CC(C)C[C@H](NC(=O)[C@H](Cc1cccc2ccccc12)NC(=O)[C@H](CNC(=O)c1ccc(F)nc1)NC(=O)[C@H](CO)NC(=O)C1CCNCC1)C(=O)N[C@H](CO)C(=O)N1CCC[C@H]1C(=O)N[C@H](C(N)=O)[C@@H](C)O` [compound 10, Inp-S-Dpr(6-FN)-1Nal-LsPT-NH2] (H-[Inp]S[Dap](Nicotinoyl(6-F))[1Nal]L[dS]PT-NH2), the half-life at 3 μM in [3] (setting [8]) is above 4 h. This molecule returned an IC50 in data set [5] of 3.55 ± 0.25 nM.

For the molecule `CC(C)C[C@H](NC(=O)[C@H](Cc1cccc2ccccc12)NC(=O)[C@H](CNC(=O)c1ccc(F)nc1)NC(=O)[C@H](CO)NC(=O)C1CCNCC1)C(=O)N[C@@H](C(=O)N1CCC[C@H]1C(=O)N[C@H](C(N)=O)[C@@H](C)O)[C@H](C)O` [compound 12, Inp-S-Dpr(6-FN)-1Nal-LtPT-NH2] (H-[Inp]S[Dap](Nicotinoyl(6-F))[1Nal]L[dT]PT-NH2), the half-life at 3 μM in data set [3] (setting [8]) was above 4 h. The same molecule returned an IC50 in data set [5] of 2.52 ± 0.32 nM.

As for `CCCC[C@H](NC(=O)[C@H](Cc1cccc2ccccc12)NC(=O)[C@H](CNC(=O)c1ccc(F)nc1)NC(=O)[C@H](CO)NC(=O)C1CCNCC1)C(=O)N[C@@H](CO)C(=O)N1CCC[C@H]1C(=O)N[C@H](C(N)=O)[C@@H](C)O` [compound 13, Inp-S-Dpr(6-FN)-1Nal-Nle-SPT-NH2] (H-[Inp]S[Dap](Nicotinoyl(6-F))[1Nal][Nle]SPT-NH2), the half-life at 3 μM in [3] (setting [8]) was 0.55 h. The IC50 in data set [5] amounted to 1.5 ± 0.27 nM.

`C[C@@H](O)[C@H](NC(=O)[C@@H]1CCCN1C(=O)[C@H](CO)NC(=O)[C@H](CC1CCCCC1)NC(=O)[C@H](Cc1cccc2ccccc12)NC(=O)[C@H](CNC(=O)c1ccc(F)nc1)NC(=O)[C@H](CO)NC(=O)C1CCNCC1)C(N)=O` [compound 14, Inp-S-Dpr(6-FN)-1Nal-Cha-SPT-NH2] (H-[Inp]S[Dap](Nicotinoyl(6-F))[1Nal][Cha]SPT-NH2): the half-life at 3 μM in data set [3] (setting [8]) is 1.18 h. The same molecule had an IC50 in [5] of 1.88 ± 0.67 nM.

As to `CC(C)C[C@H](NC(=O)[C@H](Cc1cccc2ccccc12)NC(=O)[C@H](CNC(=O)c1ccc(F)nc1)NC(=O)[C@H](CO)NC(=O)C1CCNCC1)C(=O)N[C@@H](CS)C(=O)N1CCC[C@H]1C(=O)N[C@H](C(N)=O)[C@@H](C)O` [compound 15, Inp-S-Dpr(6-FN)-1Nal-LCPT-NH2] (H-[Inp]S[Dap](Nicotinoyl(6-F))[1Nal]LCPT-NH2), in data set [3] (setting [8]), the half-life at 3 μM was 0.95 h. The same molecule had an IC50 in data set [5] of 7.15 ± 0.18 nM.

In data set [3] (setting [8]), `CC(C)C[C@H](NC(=O)[C@H](Cc1cccc2ccccc12)NC(=O)[C@H](CNC(=O)c1ccc(F)nc1)NC(=O)[C@H](CO)NC(=O)C1CCNCC1)C(=O)N[C@H](C(=O)N1CCC[C@H]1C(=O)N[C@H](C(N)=O)[C@@H](C)O)[C@@H](C)O` [compound 16, Inp-S-Dpr(6-FN)-1Nal-LTPT-NH2] (H-[Inp]S[Dap](Nicotinoyl(6-F))[1Nal]LTPT-NH2) showed a half-life at 3 μM of 1.25 h. In data set [5], this molecule came in with an IC50 of 0.62 ± 0.1 nM.

`CC(C)C[C@H](NC(=O)[C@H](Cc1cccc2ccccc12)NC(=O)[C@H](CNC(=O)c1ccc(F)nc1)NC(=O)[C@H](CO)NC(=O)C1CCNCC1)C(=O)N[C@@H](CCO)C(=O)N1CCC[C@H]1C(=O)N[C@H](C(N)=O)[C@@H](C)O` [compound 17, Inp-S-Dpr(6-FN)-1Nal-L-Hse-PT-NH2] (H-[Inp]S[Dap](Nicotinoyl(6-F))[1Nal]L[hSer]PT-NH2) gave a half-life at 3 μM in data set [3] (setting [8]) of 1.4 h. Further, in data set [5], the IC50 is 1.43 ± 0.08 nM.

Molecule `CC(C)C[C@H](NC(=O)[C@H](Cc1cccc2ccccc12)NC(=O)[C@H](CNC(=O)c1ccc(F)nc1)NC(=O)[C@H](CO)NC(=O)C1CCNCC1)C(=O)N[C@@H](CC(N)=O)C(=O)N1CCC[C@H]1C(=O)N[C@H](C(N)=O)[C@@H](C)O` [compound 18, Inp-S-Dpr(6-FN)-1Nal-LNPT-NH2] (H-[Inp]S[Dap](Nicotinoyl(6-F))[1Nal]LNPT-NH2) had a half-life at 3 μM in data set [3] (setting [8]) above 4 h. In data set [5], this molecule had an IC50 of 1.9 ± 0.56 nM.

With `CC(C)C[C@H](NC(=O)[C@H](Cc1cccc2ccccc12)NC(=O)[C@H](CNC(=O)c1ccc(F)nc1)NC(=O)[C@H](CO)NC(=O)C1CCNCC1)C(=O)N[C@@H](CCC(N)=O)C(=O)N1CCC[C@H]1C(=O)N[C@H](C(N)=O)[C@@H](C)O` [compound 19, Inp-S-Dpr(6-FN)-1Nal-LQPT-NH2] (H-[Inp]S[Dap](Nicotinoyl(6-F))[1Nal]LQPT-NH2), in data set [3] (setting [8]), the half-life at 3 μM is 2.03 h. The same molecule gave an IC50 in [5] of 1.21 ± 0.12 nM.

Consider `CC[C@H](NC(=O)[C@H](CC(C)C)NC(=O)[C@H](Cc1cccc2ccccc12)NC(=O)[C@H](CNC(=O)c1ccc(F)nc1)NC(=O)[C@H](CO)NC(=O)C1CCNCC1)C(=O)N1CCC[C@H]1C(=O)N[C@H](C(N)=O)[C@@H](C)O` [compound 20, Inp-S-Dpr(6-FN)-1Nal-L-Abu-PT-NH2] (H-[Inp]S[Dap](Nicotinoyl(6-F))[1Nal]L[Abu]PT-NH2), for which, in data set [3] (setting [8]), the half-life at 3 μM was 0.46 h. This molecule yielded a concentration giving a half-maximal response (EC50) at GHSR of 30 nM. This molecule also returned an IC50 in data set [5] of 2.54 ± 0.65 nM.

Take `CC(C)C[C@H](NC(=O)[C@H](Cc1cccc2ccccc12)NC(=O)[C@H](CNC(=O)c1ccc(F)nc1)NC(=O)[C@H](CO)NC(=O)C1CCNCC1)C(=O)N(C)[C@@H](CO)C(=O)N1CCC[C@H]1C(=O)N[C@H](C(N)=O)[C@@H](C)O` [compound 22, Inp-S-Dpr(6-FN)-1Nal-L-S(N-Me)-PT-NH2] (H-[Inp]S[Dap](Nicotinoyl(6-F))[1Nal]L[NMeS]PT-NH2): in “Human serum stability” (human serum, over 24 h), the “stability in human serum” value is listed as “stable”. Moreover, in [3] (setting [9]), the “stability in human liver S9 fraction” value is reported as “stable”. This molecule displayed a half-life at 3 μM in [3] (setting [8]) above 4 h. Besides, the EC50 at GHSR was found to be 119 nM. The molecule also registered an IC50 in [5] of 1.32 ± 0.58 nM.

As for Inp-S-Dpr(6-FN)-1Nal-L-Dpr-PT-NH2, the not cleaved entry in data set [6] was “full stability over 24 h”.

Consider Inp-S-Dpr(6-FN)-1Nal-L-S(N-Me)-PT-NH2, for which the not cleaved result in data set [6] is “stable; serum t1/2 >24 h”.

Inp-S-Dpr(6-FN)-1Nal-LSPT-NH2: in [6], the cleaved bond entry is given as “Leu5-Ser6, first_seen, 30 min”; the fragment found was 4; 1Nal-L-OH and 5; Inp-S-Dpr(6-FNA)-OH.

Turning to Inp-S-Dpr(6-FN)-1Nal-lSPT-NH2, in data set [6], the not cleaved result was “completely stable; serum t1/2 >24 h”.

In turn, acylated human ghrelin(1–28) (ligand) registered a concentration for half-maximal inhibition (IC50) in data set [7] of 2.48 nM.

“ghrelin(1–8) analogue 11, Inp-S-Dpr(6-FN)-1Nal-lsPT-NH2 (peptide)” gave an IC50 in data set [7] of 11.5 nM.

As for “ghrelin(1–8) analogue 21, Inp-S-Dpr(6-FN)-1Nal-L-Dpr-PT-NH2 (peptide)”, the IC50 in [7] was 0.32 nM.

Turning to “ghrelin(1–8) analogue 23, Inp-S-Dpr(6-FN)-1Nal-β-homoL-SPT-NH2 (peptide)”, the IC50 in [7] was 2.11 nM.
